The results in this text go back to ChEMBL document CHEMBL1149218, “Predicting pharmacophore signals for post-coital antifertility activity of 1-trifluoromethyl-1,2,2-triphenylethylene derivatives: a statistical approximation using E-state index” (2004).

This test relates to Rattus norvegicus. Description: Effective oral dose of compound for Post-coital antifertility activity was determined in rats. It is filed as functional. On the set-up: unit not given here.
`Fc1ccccc1C(=C(c1ccccc1)c1ccccc1)C(F)(F)F` displayed a pED50 of 1.204. With `Fc1ccc(/C(=C(/c2ccccc2)C(F)(F)F)c2ccccc2)cc1` the figure was 2.491; with `FC(F)(F)C(=C(c1ccccc1)c1ccccc1)c1cccc(C(F)(F)F)c1`, 1.477; with `FC(F)(F)C(=C(c1ccccc1)c1ccccc1)c1cccs1`, 2.914. Compound `FC(F)(F)C(F)(F)C(=C(c1ccccc1)c1ccccc1)c1ccccc1` had a pED50 of 2.301.

`COc1ccc(/C(=C(/c2ccccc2)C(F)(F)F)c2ccccc2)cc1` came in with a pED50 of 1.114. In turn, `COc1ccc(C(=C(c2ccccc2)c2ccccc2)C(F)(F)F)cc1` showed a pED50 of 2.079. Then `Fc1ccc(C(=C(c2ccccc2)c2ccccc2)C(F)(F)F)cc1`, with 1.602; and `FC(F)(F)C(c1ccccc1)C(c1ccccc1)c1ccccc1` (stereo not drawn), with 2.991. With `Fc1cccc(C(=C(c2ccccc2)c2ccccc2)C(F)(F)F)c1` the figure was 1.204. With `COc1ccc(/C(=C(\c2ccccc2)C(F)(F)F)c2ccccc2)cc1` the figure was 1.602.

In the case of `FC(F)(F)C(=C(c1ccccc1)c1ccccc1)c1ccc(C(F)(F)F)cc1`, the pED50 worked out at 1.477.

In the case of `COc1ccc(C(=C(c2ccccc2)C(F)(F)F)c2ccc(OC)cc2)cc1`, the pED50 was determined as 2.079.

On to `COc1ccc(/C(=C(/c2ccc(F)cc2)C(F)(F)F)c2ccccc2)cc1`, for which the pED50 stood at 1.301. In the case of `FC(F)(F)C(=C(c1ccccc1)c1ccccc1)c1ccc(Cl)cc1`, the pED50 is reported as 1.477. With `FC(F)(F)C(=C(c1ccccc1)c1ccccc1)c1ccccc1` the figure was 2.079; with `FC(F)(F)C(=C(c1ccccc1)c1ccccc1)c1ccc(C(F)(C(F)(F)F)C(F)(F)F)cc1`, 1.204. With `Cc1ccc(C(=C(c2ccccc2)c2ccccc2)C(F)(F)F)cc1` the figure was 2.681.
